Experiments:
Coagulation factor XI [1] = biological target: T1, Coagulation factor XI (Homo sapiens, UniProt P03951); conditions: dose 50.0 nM, time 1.0 hrs
Coagulation factor XI [2] = biological target: T1, Coagulation factor XI; assay: Inhibition of coagulation factor XIa (unknown origin) assessed as chromogenic substrate hydrolysis using CS-21(66) as substrate incubated for 1 hr by spectrophotometer based microplate reader method
Plasma kallikrein = Plasma kallikrein (Homo sapiens, UniProt P03952); assay: Inhibition of plasma kallikrein (unknown origin) assessed as chromogenic substrate hydrolysis using CS-31(02) as substrate incubated for 1 hr by spectrophotometer based microplate reader method
Homo sapiens = organism: Homo sapiens; assay: Selectivity index, ratio of IC50 for plasma kallikrein (unknown origin) to IC50 for coagulation factor XIa (unknown origin)

T1 sequence (P03951 19-387 limits assumed): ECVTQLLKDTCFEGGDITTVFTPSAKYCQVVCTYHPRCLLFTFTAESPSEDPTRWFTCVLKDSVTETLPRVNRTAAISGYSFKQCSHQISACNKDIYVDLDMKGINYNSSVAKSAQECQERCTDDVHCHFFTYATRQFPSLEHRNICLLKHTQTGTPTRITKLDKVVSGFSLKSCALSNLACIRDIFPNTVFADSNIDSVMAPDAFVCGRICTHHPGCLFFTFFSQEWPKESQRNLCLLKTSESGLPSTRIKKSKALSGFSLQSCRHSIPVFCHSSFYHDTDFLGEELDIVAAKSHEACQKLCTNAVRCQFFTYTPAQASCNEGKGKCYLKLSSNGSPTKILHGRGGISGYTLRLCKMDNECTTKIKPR
T1 sequence (P03951 388-625 limits assumed): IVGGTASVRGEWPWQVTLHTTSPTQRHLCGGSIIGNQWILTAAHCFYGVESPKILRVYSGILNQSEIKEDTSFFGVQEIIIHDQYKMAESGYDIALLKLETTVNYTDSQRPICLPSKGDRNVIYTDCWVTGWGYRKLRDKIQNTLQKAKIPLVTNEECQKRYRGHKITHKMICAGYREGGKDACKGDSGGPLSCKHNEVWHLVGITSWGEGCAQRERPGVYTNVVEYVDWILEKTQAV
Sequence of Plasma kallikrein (P03952 20-390 limits assumed): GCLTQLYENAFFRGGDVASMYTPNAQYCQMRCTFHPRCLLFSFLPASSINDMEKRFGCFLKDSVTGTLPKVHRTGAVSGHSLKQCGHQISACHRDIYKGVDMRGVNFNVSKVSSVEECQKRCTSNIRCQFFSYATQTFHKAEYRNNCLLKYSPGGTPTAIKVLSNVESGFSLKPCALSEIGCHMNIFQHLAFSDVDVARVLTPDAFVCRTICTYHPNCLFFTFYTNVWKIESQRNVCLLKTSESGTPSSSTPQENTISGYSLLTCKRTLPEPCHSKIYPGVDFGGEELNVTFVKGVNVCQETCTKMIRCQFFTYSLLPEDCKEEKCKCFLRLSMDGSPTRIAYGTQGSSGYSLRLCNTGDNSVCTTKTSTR
Sequence of Plasma kallikrein (P03952 391-638 limits assumed): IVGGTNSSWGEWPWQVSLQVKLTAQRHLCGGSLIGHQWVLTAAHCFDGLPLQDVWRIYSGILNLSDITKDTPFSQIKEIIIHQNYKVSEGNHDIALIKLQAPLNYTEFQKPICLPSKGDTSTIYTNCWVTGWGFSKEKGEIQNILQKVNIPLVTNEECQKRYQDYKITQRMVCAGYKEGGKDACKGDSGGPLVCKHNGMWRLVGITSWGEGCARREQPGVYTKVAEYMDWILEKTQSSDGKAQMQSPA

| SMILES | inhibition (Coagulation factor XI [1]) | other results |
| --- | --- | --- |
| O=C(/C=C/c1cc(Cl)ccc1-n1cnnn1)N[C@@H](CCC(=O)N1CCS(=O)(=O)CC1)C(=O)Nc1ccc(C(=O)O)cc1 | 2.6% | – |
| COc1ccc(CN(CC(=O)Nc2ccc(C(=O)O)cc2)C(=O)/C=C/c2cc(Cl)ccc2-n2cnnn2)cc1 | 8.9% | – |
| O=C(/C=C/c1cc(Cl)ccc1-n1cnnn1)N[C@@H](CCC(=O)N1CCCCC1)C(=O)Nc1ccc(C(=O)O)cc1 | 16.1% | – |
| O=C(/C=C/c1cc(Cl)ccc1-n1cnnn1)N[C@@H](CC(=O)N1CCCCC1)C(=O)Nc1ccc(C(=O)O)cc1 | 15.9% | – |
| CCN1CCN(C(=O)CC[C@H](NC(=O)/C=C/c2cc(Cl)ccc2-n2cnnn2)C(=O)Nc2ccc(C(=O)O)cc2)CC1 | 17.2% | IC50 (Coagulation factor XI [2]): 89.4 nM |
| O=C(O)CC[C@H](NC(=O)/C=C/c1cc(Cl)ccc1-n1cnnn1)C(=O)Nc1ccc(C(=O)O)cc1 | 6.6% | – |
| O=C(/C=C/c1cc(Cl)ccc1-n1cnnn1)N[C@@H](CC(=O)N1CCC(O)CC1)C(=O)Nc1ccc(C(=O)O)cc1 | 12.3% | – |
| CN1CCCN(C(=O)CC[C@H](NC(=O)/C=C/c2cc(Cl)ccc2-n2cnnn2)C(=O)Nc2ccc(C(=O)O)cc2)CC1 | 30.1% | – |
| CCCCN1CCN(C(=O)C[C@H](NC(=O)/C=C/c2cc(Cl)ccc2-n2cnnn2)C(=O)Nc2ccc(C(=O)O)cc2)CC1 | 51.5% | IC50 (Coagulation factor XI [2]): 7.7 nM; IC50 (Plasma kallikrein): 510 nM |
| O=C(/C=C/c1cc(Cl)ccc1-n1cnnn1)NCC(=O)Nc1ccc(C(=O)O)cc1 | < 5% | – |
| CC1CCN(C(=O)CC[C@H](NC(=O)/C=C/c2cc(Cl)ccc2-n2cnnn2)C(=O)Nc2ccc(C(=O)O)cc2)CC1 | 3.1% | – |
| CC(C)N1CCN(C(=O)CC[C@H](NC(=O)/C=C/c2cc(Cl)ccc2-n2cnnn2)C(=O)Nc2ccc(C(=O)O)cc2)CC1 | 20.9% | IC50 (Coagulation factor XI [2]): 73.5 nM |
| O=C(O)C[C@H](NC(=O)/C=C/c1cc(Cl)ccc1-n1cnnn1)C(=O)Nc1ccc(C(=O)O)cc1 | 2.1% | – |
| COc1ccc(CN(CC(=O)Nc2ccc(C(=O)O)cc2)C(=O)/C=C/c2cccc(Cl)c2)cc1 | < 5% | – |
| CN(C)C1CCN(C(=O)CC[C@H](NC(=O)/C=C/c2cc(Cl)ccc2-n2cnnn2)C(=O)Nc2ccc(C(=O)O)cc2)CC1 | 7.5% | – |
| O=C(/C=C/c1cc(Cl)ccc1-n1cnnn1)N[C@@H](CCC(=O)N1CCN(Cc2cccc(Cl)c2)CC1)C(=O)Nc1ccc(C(=O)O)cc1 | 3.8% | – |
| CCCCN1CCN(C(=O)CC[C@H](NC(=O)/C=C/c2cc(Cl)ccc2-n2cnnn2)C(=O)Nc2ccc(C(=O)O)cc2)CC1 | 39.3% | IC50 (Plasma kallikrein): 2700 nM; Ratio IC50 (Homo sapiens): 30 |
| CC1CCN(C(=O)C[C@H](NC(=O)/C=C/c2cc(Cl)ccc2-n2cnnn2)C(=O)Nc2ccc(C(=O)O)cc2)CC1 | 3.6% | – |
| Cc1ccc(CN2CCN(C(=O)CC[C@H](NC(=O)/C=C/c3cc(Cl)ccc3-n3cnnn3)C(=O)Nc3ccc(C(=O)O)cc3)CC2)cc1 | 19.4% | – |
| O=C(CN(Cc1ccc(F)cc1)C(=O)/C=C/c1cc(Cl)ccc1-n1cnnn1)Nc1ccc(C(=O)O)cc1 | 7.2% | – |
| CN1CCN(C(=O)CC[C@H](NC(=O)/C=C/c2cc(Cl)ccc2-n2cnnn2)C(=O)Nc2ccc(C(=O)O)cc2)CC1 | 20.5% | IC50 (Coagulation factor XI [2]): 737 nM |
| O=C(CN(Cc1ccccc1)C(=O)/C=C/c1cccc(Cl)c1)Nc1ccc(C(=O)O)cc1 | 7.9% | – |
| Cc1ccc(CN(CC(=O)Nc2ccc(C(=O)O)cc2)C(=O)/C=C/c2cc(Cl)ccc2-n2cnnn2)cc1 | < 5% | – |
| CCc1ccc(CN(CC(=O)Nc2ccc(C(=O)O)cc2)C(=O)/C=C/c2cc(Cl)ccc2-n2cnnn2)cc1 | 3.6% | – |
| O=C(/C=C/c1cc(Cl)ccc1-n1cnnn1)N[C@@H](CCC(=O)N1CCC(O)CC1)C(=O)Nc1ccc(C(=O)O)cc1 | 20.9% | – |
| O=C(CN(Cc1ccccc1)C(=O)/C=C/c1cc(Cl)ccc1-n1cnnn1)Nc1ccc(C(=O)O)cc1 | 15.3% | – |
| CN1CCN(C(=O)C[C@H](NC(=O)/C=C/c2cc(Cl)ccc2-n2cnnn2)C(=O)Nc2ccc(C(=O)O)cc2)CC1 | 17.2% | – |

— ChEMBL document CHEMBL5046289, “Targeting the S2 Subsite Enables the Structure-Based Discovery of Novel Highly Selective Factor XIa Inhibitors” (J Med Chem, 2022)
